Values of other authors as cited in patent US20110294879A1, “METHOD OF TREATMENT OF FRAGILE X SYNDROME, DOWN'S SYNDROME, AUTISM AND RELATED DISORDERS” (XENOPORT, INC., priority 2010, published 2011).

Assays:
[1] = tested on: autistic children
[2] = tested on: subjects with FXS and comorbid autistic disorder
[3] = tested on: Fmr KO mice; details: Bear et al patents
[4] = humans

## Cc1nc2n(c(=O)c1CCN1CCC(c3noc4cc(F)ccc34)CC1)CCCC2 [risperidone]
[1]
  social isolation and communication: not improved
[1]; McCracken et al 2002
  irritability subscale of the Aberrant Behavior Checklist and Clinical Global Impressions-Improvement: significant improvement

## CC(=O)NCCCS(=O)(=O)O [CAMPRAL, acamprosate calcium]
[2]; fragile X subjects treated in the study
  adverse GI events: observed in the majority of fragile X subjects
[2]; subjects with FXS and comorbid autistic disorder, Erickson et al 2010
  Clinical Global Impression (CGI-I): significant symptomatic improvements

## Cc1cccc(C#Cc2ccccc2)n1 [MPEP, 2-methyl-6-(phenylethynyl)-pyridine]
[3]
  behavioral and developmental phenotypes: reverse behavioral and developmental phenotypes

## CC(=O)NCCCS(=O)(=O)O [acamprosate, 3-(Acetylamino)propylsulfonic acid]
[4]
  oral bioavailability: about 11%
